According to paper PMC9430380, “Oridonin Attenuates Burkholderia cenocepacia Virulence by Suppressing Quorum-Sensing Signaling” (Microbiology Spectrum, 2022):

Experiments:
CepR = molecular target: T1, CepR (Burkholderia cenocepacia, UniProt B4EMD0); experiment: ITC with purified protein (one-site model); EMSA shows inhibited binding to bclACB promoter
T1 construct: HIS-CepR fusion protein (pDBHT2), cleaved with TEV protease

RqpR = molecular target: T2, RqpR; experiment: ITC with purified protein (one-site model); EMSA shows inhibited binding to rpfFBC and cepI promoters; set-up: species or system Burkholderia cenocepacia
T2 construct: HIS-RqpR fusion protein (pDBHT2), cleaved with TEV protease

T1 sequence (B4EMD0 entry or part of it): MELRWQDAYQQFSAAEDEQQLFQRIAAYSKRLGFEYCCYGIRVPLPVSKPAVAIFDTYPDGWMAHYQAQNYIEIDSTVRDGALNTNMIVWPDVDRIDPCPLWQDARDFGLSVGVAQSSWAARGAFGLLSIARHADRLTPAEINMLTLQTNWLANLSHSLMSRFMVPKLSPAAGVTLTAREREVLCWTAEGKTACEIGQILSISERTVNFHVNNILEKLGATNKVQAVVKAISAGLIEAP

`C=C1C(=O)[C@]23[C@H](O)[C@H]1CC[C@H]2[C@@]12CO[C@]3(O)[C@@H](O)[C@@H]1C(C)(C)CC[C@@H]2O` [oridonin] was tested, and the Kd (CepR) was 13.6 ± 0.826 µM and the Kd (RqpR) was 8.28 ± 0.895 µM.
